Assay results from US12116356B2, “N-heterocyclic five-membered ring-containing capsid protein assembly inhibitor, pharmaceutical composition thereof, and use thereof” (CHIA TAI TIANQING PHARMACEUTICAL GROUP CO., LTD., priority 2018, dated 2024).
Values after ≈ are worked out from the molar mass of the structure shown.

Legend:
[1] = Stability of rat liver microsomes in vitro; assay type: in vitro ADME
Description: (§1) 300 μL of a final incubation system contains 30 μL of liver microsomes (protein concentration: 0.15 mg/mL), 30 μL NADPH+MgCl2, 3 μL substrate (formulated with acetonitrile), and 237 μL PBS buffer. Duplicate incubation systems of 0.3 mL each were formulated for each species. A total volume of 270 μL of a uniformly mixed solution of the substrate and the enzyme was formulated in each tube, the solution and NADPH were pre-incubated at 37° C. for 5 minutes, respectively. Then 30 μL of the mixed solution of NADPH+MgCl2 was added for reaction. 50 μL of the reaction solution was taken out at 0, 10, 30, and 60 mins, and the reaction was terminated with 300 μL of ice acetonitrile containing an internal standard.
(§2) Sample pre-treatment: To 50 μL of the incubated sample was added 300 μL of ice acetonitrile containing diazepam as an internal standard and then precipitated. After vortexing for 5 minutes, the sample was centrifugated (12000 rpm, 4° C.) for 10 minutes. 75 μL of the supernatant was pipetted into a 96-well plate, and then diluted with 75 μL ultrapure water and mixed uniformly. 0.5 μL of the resulting solution was injected and analyzed by LC-MS/MS.

[2] = In vitro cytotoxicity (CCK-8) in HepAD38 cells; assay type: cell-based; details: human
Description: (§3) A bottle of HepG2.2.15 or HepAD38 cells in good exponential growth state was taken, washed once by adding 5 mL PBS, and then thereto was added 3 mL trypsin. The sample was digested in a cell culture incubator, and taken out from time to time and observed under a microscope. When the cells just fell off, 1 mL trypsin was discarded. The residual liquid was placed in a cell culture incubator at 37° C. and digested for 8-15 min. The cells were taken out and observed under a microscope (whether the cells were individually round and there was no adhesion between the cells). 5 mL MEM medium was added for cell resuspension. The cells were then subjected to cell counting with a cell counter, diluted with a complete medium, and adjusted to a cell density of 2*10^5 cells/mL. Then the cells were seeded at 100 μL/well in a 96-well plate with a multi-channel pipette (the 96-well plate was coated with 50 μg/mL Collagen I solution in advance), and cultured in a constant temperature CO2 incubator for 24 h. The cells were treated by drug administration, and fresh medium containing the compound was used to replace the spent medium every 3 days. To control wells was added a drug-free medium containing 0.5% DMSO, and a control well containing a common medium was set up. 6 days after the administration, CCK-8 was added at 10 μL/well. After 1 to 2 hours, the absorbance was detected with microplate reader at 450 nm, and the inhibition rate and the CC50 were calculated.

[3] = Stability of human liver microsomes in vitro; assay type: in vitro ADME
Description: as §1, §2

[4] = tested on: HBV DNA in HepAD38 cells; assay: In vitro cell HBV DNA inhibitory activity (anti-HBV activity) in HepAD38 cells; assay type: cell-based; details: Hepatitis B virus, 144 h; anti-HBV activity in HepAD38 cells, 6 days treatment, intracellular capsid HBV DNA by qPCR; read-out: EC50
Description: (§4) A bottle of HepG2.2.15 or HepAD38 cells in good exponential growth state was taken, washed once by adding 5 mL PBS, and then thereto was added 3 mL trypsin. After digesting at room temperature for 5 min, 2 mL trypsin was discarded, and then the sample was placed in a cell culture incubator and digested for 10 min. The cells were taken out from time to time and observed under a microscope (whether the cells were individually round and there was no adhesion between the cells). 10 mL complete medium was added to terminate the digestion. After pipetting into a single cell suspension, 10 μL of the cell suspension was taken out for cell counting with a cell counter, and then diluted with a complete medium and adjusted to a cell density of 1*10^5 cells/mL. Then the cell suspension was seeded at 1 mL/well in a 24-well plate with a multi-channel pipette (the 24-well plate was coated with 50 μg/mL Collagen I solution in advance), and cultured in a constant temperature CO2 incubator for 48 h.
(§5) Different compounds dissolved in DMSO were subjected to two-fold gradient dilution (10 concentrations in total) with complete medium. The compound was added, and fresh medium containing the compound was used to replace the spent medium every 72 hours. The cells were treated with the compound for 6 days. After the supernatant was siphoned off, 300 μL lysate (10 mM Tris-HCl, 1 mM EDTA, and 1% NP-40) was added to each well. After lysing at room temperature for 10 min, DNA was extracted, and HBV DNA in the intracellular viral capsid was measured by real-time fluorescence quantitative PCR. The inhibition rate was calculated based on the Ct value, and the EC50 value was calculated by the four-parameter method.

[5] = In vitro cytotoxicity (CCK-8) in HepG2.2.15 cells; assay type: cell-based; details: human
Description: as §3

[6] = tested on: HBV DNA in HepG2.2.15 cells; assay: In vitro cell HBV DNA inhibitory activity (anti-HBV activity) in HepG2.2.15 cells; assay type: cell-based; details: Hepatitis B virus, 144 h; anti-HBV activity in HepG2.2.15 cells, 6 days treatment, intracellular capsid HBV DNA by qPCR; read-out: EC50
Description: as §4, §5

[7] = Solubility in PBS buffer at pH 7.4; assay type: physicochemical; details: aqueous buffer, PBS buffer pH 7.4, 25° C.
Description: […] After standing at 25° C. for 16 hours, the system was centrifugated (12000 rpm, room temperature) for 10 min. 20 μL of the supernatant was taken out, and the reaction was terminated with 400 μL of acetonitrile containing an internal standard (diazepam 20 ng/mL). 30 μL of the supernatant was pipetted, and 150 μL of 50% acetonitrile aqueous solution was added thereto for dilution and mixed uniformly. 0.5 μL of the resulting solution was injected for analysis.

[8] = Stability of mouse liver microsomes in vitro; assay type: in vitro ADME
Description: as §1, §2

With `C#CCNC(=O)C(=O)c1c(C)c(C(=O)Nc2ccc(F)c(C#N)c2)c(C)n1C` [Example 1, N-(3-cyano-4-fluorophenyl)-1,2,4-trimethyl-5-(2-oxo-2-(prop-2-yn-1-ylamino)acetyl)-1H-pyrrole-3-carboxamide] the “Remaining (%) at 60 min” value [1] was 44%, the CC50 at 6 days [2] was > 100000 nM and the “Remaining (%) at 60 min” value [3] was 69%. The EC50 [4] was 10 to 50 nM, the CC50 at 6 days [5] was > 100000 nM and the EC50 [6] was 10 to 50 nM.

With `Cc1c(C(=O)Nc2ccc(F)c(C#N)c2)c(C)n(C)c1C(=O)C(=O)NC12CC(C1)C2` [Example 2, 5-(2-(Bicyclo[1.1.1]pentan-1-ylamino)-2-oxoacetyl)-N-(3-cyano-4-fluorophenyl)-1,2,4-trimethyl-1H-pyrrole-3-carboxamide] the CC50 at 6 days [2] was > 100000 nM, the solubility at 16 h [7] was 22.1 µM (≈ 9.03 µg/mL) and the EC50 [4] was < 10 nM. For the same compound, the EC50 [6] was < 10 nM.

In the case of `Cc1c(C(=O)Nc2ccc(F)c(C#N)c2)c(C)n(C)c1C(=O)C(=O)NC1(C)COC1` [Example 6, N-(3-cyano-4-fluorophenyl)-1,2,4-trimethyl-5-(2-(3-methyloxetan-3-ylamino)-2-oxoacetyl)-1H-pyrrole-3-carboxamide], the “Remaining (%) at 60 min” value [1] is reported as 74.9%, the CC50 at 6 days [2] is reported as > 100000 nM and the “Remaining (%) at 60 min” value [3] is reported as 79.1%. The “Remaining (%) at 60 min” value [8] was 55%, the solubility at 16 h [7] was 81.8 µM (≈ 33.7 µg/mL) and the EC50 [4] was 10 to 50 nM. For the same compound, the CC50 at 6 days [5] was > 100000 nM and the EC50 [6] was 10 to 50 nM.

With `Cc1c(C(=O)Nc2ccc(F)c(C#N)c2)c(C)n(C)c1C(=O)C(=O)NC1CCOC1` (stereo not shown) [Example 7, N-(3-cyano-4-fluorophenyl)-1,2,4-trimethyl-5-(2-oxo-2-((tetrahydrofuran-3-yl)amino)acetyl)-1H-pyrrole-3-carboxamide] the “Remaining (%) at 60 min” value [1] was 70.5%, the CC50 at 6 days [2] was > 100000 nM and the “Remaining (%) at 60 min” value [3] was 83.8%. The “Remaining (%) at 60 min” value [8] was 81.6%, the solubility at 16 h [7] was 19.8 µM (≈ 8.17 µg/mL) and the EC50 [4] was < 10 nM. The CC50 at 6 days [5] was > 100000 nM and the EC50 [6] was 10 to 50 nM.

With `Cc1c(C(=O)Nc2ccc(F)c(C#N)c2)c(C)n(C)c1C(=O)C(=O)NC(C)(C)CO` [Example 8, N-(3-cyano-4-fluorophenyl)-5-(2-((1-hydroxy-2-methylpropan-2-yl)amino)-2-oxoacetyl)-1,2,4-trimethyl-1H-pyrrole-3-carboxamide] the “Remaining (%) at 60 min” value [1] was 52.0%, the CC50 at 6 days [2] was > 100000 nM and the “Remaining (%) at 60 min” value [3] was 70.6%. The solubility at 16 h [7] was 80.9 µM (≈ 33.5 µg/mL), the EC50 [4] was < 10 nM and the CC50 at 6 days [5] was > 100000 nM. For the same compound, the EC50 [6] was < 10 nM.

With `COC(=O)C(C)(C)NC(=O)C(=O)c1c(C)c(C(=O)Nc2ccc(F)c(C#N)c2)c(C)n1C` [Example 9, methyl (2-(4-((3-cyano-4-fluorophenyl)carbamoyl)-1,3,5-trimethyl-1H-pyrrole-2-yl)-2-oxoacetylamino)-2-methylpropionate] the CC50 at 6 days [2] was > 100000 nM, the solubility at 16 h [7] was 9.6 µM (≈ 4.25 µg/mL) and the EC50 [4] was < 10 nM. The CC50 at 6 days [5] was > 100000 nM and the EC50 [6] was 10 to 50 nM.

For `Cc1c(C(=O)Nc2ccc(F)c(C#N)c2)c(C)n(C)c1C(=O)C(=O)N[C@H](C)C(F)(F)F` [Example 11], the “Remaining (%) at 60 min” value [1] was 56.8%, the CC50 at 6 days [2] was > 100000 nM and the “Remaining (%) at 60 min” value [8] was 47.7%. For the same compound, the solubility at 16 h [7] was 7.5 µM (≈ 3.29 µg/mL), the EC50 [4] was < 10 nM and the CC50 at 6 days [5] was > 100000 nM. For the same compound, the EC50 [6] was < 10 nM.

In the case of `Cc1c(C(=O)Nc2ccc(F)c(C#N)c2)c(Br)n(C)c1C(=O)C(=O)NC(C)(C)C` [Example 15, 2-bromo-5-(2-(tert-butylamino)-2-oxoacetyl)-N-(3-cyano-4-fluorophenyl)-1,4-dimethyl-1H-pyrrole-3-carboxamide], the CC50 at 6 days [2] is reported as > 100000 nM, the solubility at 16 h [7] is reported as 4.9 µM (≈ 2.27 µg/mL) and the EC50 [4] is reported as < 10 nM. It also gave an EC50 [6] of 10 to 50 nM.

In the case of `Cc1c(C(=O)Nc2ccc(F)c(C#N)c2)c(Cl)n(C)c1C(=O)C(=O)NC(C)(C)C` [Example 17, 5-(2-(tert-butylamino)-2-oxoacetyl)-2-chloro-N-(3-cyano-4-fluorophenyl)-1,4-dimethyl-1H-pyrrole-3-carboxamide], the “Remaining (%) at 60 min” value [1] is reported as 44.9%, the CC50 at 6 days [2] is reported as > 100000 nM and the “Remaining (%) at 60 min” value [8] is reported as 47.4%. The CC50 at 6 days [5] was > 100000 nM and the EC50 [6] was 10 to 50 nM.

With `Cc1c(C(=O)Nc2ccc(F)c(C#N)c2)c(C)n(C)c1C(=O)C(=O)NC1(CO)CC1` [Example 27, N-(3-cyano-4-fluorophenyl)-5-(2-((1-(hydroxymethyl)cyclopropyl)amino)-2-oxoacetyl)-1,2,4-trimethyl-1H-pyrrole-3-carboxamide] the CC50 at 6 days [2] was > 100000 nM, the EC50 [4] was 10 to 50 nM and the CC50 at 6 days [5] was > 100000 nM. The EC50 [6] was 10 to 50 nM.

For `Cc1c(C(=O)Nc2ccc(F)c(C#N)c2)c(Cl)n(C)c1C(=O)C(=O)N[C@@H](C)C(F)(F)F` [Example 29, (S)-2-chloro-N-(3-cyano-4-fluorophenyl)-1,4-dimethyl-5-(2-oxo-2-((1,1,1-trifluoroprop-2-yl)amino)acetyl)-1H-pyrrole-3-carboxamide], the “Remaining (%) at 60 min” value [1] was 88.7%, the CC50 at 6 days [2] was > 100000 nM and the “Remaining (%) at 60 min” value [3] was 99.6%. The “Remaining (%) at 60 min” value [8] was 99.2%, the EC50 [4] was < 10 nM and the CC50 at 6 days [5] was > 100000 nM. The EC50 [6] was 10 to 50 nM.

In the case of `Cc1c(C(=O)Nc2ccc(F)c(C#N)c2)c(Cl)n(C)c1C(=O)C(=O)N[C@H](C)C(F)(F)F` [Example 30, (R)-2-chloro-N-(3-cyano-4-fluorophenyl)-1,4-dimethyl-5-(2-oxo-2-((1,1,1-trifluoroprop-2-yl)amino)acetyl)-1H-pyrrole-3-carboxamide], the CC50 at 6 days [2] is reported as > 100000 nM, the EC50 [4] is reported as 10 to 50 nM and the CC50 at 6 days [5] is reported as > 100000 nM. The EC50 [6] was < 10 nM.

In the case of `Cc1c(C(=O)Nc2ccc(F)c(N)c2)c(C)n(C)c1C(=O)C(=O)N[C@@H](C)C(F)(F)F` [Example 42, (S)—N-(3-amino-4-fluorophenyl)-1,2,4-trimethyl-5-(2-oxo-2-((1,1,1-trifluoroprop-2-yl)amino)acetyl)-1H-pyrrole-3-carboxamide], the “Remaining (%) at 60 min” value [1] is reported as 85.3%, the “Remaining (%) at 60 min” value [3] is reported as 102% and the “Remaining (%) at 60 min” value [8] is reported as 61.9%. For the same compound, the EC50 [4] was 10 to 50 nM, the CC50 at 6 days [5] was > 100000 nM and the EC50 [6] was < 10 nM.

For `Cc1c(C(=O)Nc2ccc(F)c(C#N)c2)c(C)n(C)c1C(=O)C(=O)NC1(C)CS(=O)(=O)C1` [Example 45, N-(3-cyano-4-fluorophenyl)-1,2,4-trimethyl-5-(2-((3-methyl-1,1-dioxidothietan-3-yl)amino)-2-oxoacetyl)-1H-pyrrole-3-carboxamide], the “Remaining (%) at 60 min” value [1] was 47%, the “Remaining (%) at 60 min” value [3] was 73% and the EC50 [4] was 10 to 50 nM. The EC50 [6] was < 10 nM.
